Laboratory results: paper PMC8348310, “Antioxidants Isolated from Elaeagnus umbellata (Thunb.) Protect against Bacterial Infections and Diabetes in Streptozotocin-Induced Diabetic Rat Model” (Molecules, 2021)

Assay: Acute toxicity study
Type: in vivo, Sprague Dawley adult albino rats
Details: oral 50, 100, 150, 200, 250, 300, and 500 mg/kg body weight; observed 4 h, 24 h to 1 week
Experimental: Sprague Dawley adult albino rats (body weight range = 170–200 g) were used in in vivo studies. The animals were purchased from Rifah Institute of Pharmaceutical Sciences Islamabad. The entire animals were given food and fresh water ad libitum. The animals were adjusted at room temperature around 22–25 °C. The animals were housed three rats per cage and maintained with light/dark cycle of about 12 h. All the in vivo procedures were carried out according to the ARRIVE guidelines and approval was taken from the Departmental Animal Ethical Committee (DAEC/2019/1), University of Malakand.
For acute toxicity study all the animals were treated orally with different doses (50, 100, 150, 200, 250, 300, and 500 mg/kg body weight) of isolated compound morin. After that the animals were kept under observation for 4 h for signs of toxicity (respiratory aches, convulsions, motor activity, tremors, muscle spasm, sedation, diarrhea, loss of righting reflex, hypnosis, and salivation). All the animals appeared healthy for 24 h to 1 week with no noticeable changes in appearance or behavior, and no signs of mortality were noticed. […]

Structure (SMILES): O=c1c(O)c(-c2ccc(O)cc2O)oc2cc(O)cc(O)c12 [Morin, 2-(2,4-Dihydroxyphenyl)-3,5,7-trihydroxychromen-4-one]
- acute toxicity (signs of toxicity, mortality): safe and nontoxic up to 500 mg/kg body weight
